# Results from the supplement of paper PMC10307832.
# Legend:
# Experiment in all cases: relative viability (nuclei count vs DMSO), 5 days (fraction); higher = more cells survive
# [1] = compound: COc1cc(-c2nn([C@H]3CC[C@H](N4CCN(C(C)=O)CC4)CC3)c3ncnc(N)c23)ccc1NC(=O)c1cc2ccccc2n1C + Nc1nc2[nH]cc(CCc3ccc(C(=O)N[C@@H](CCC(=O)O)C(=O)O)cc3)c2c(=O)[nH]1 [Pemetrexed] (partner 0.2 µM)
# Summary of the method: (§1)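 Relative viability is defined as nuclei in treated wells over nuclei in vehicle wells. Duplicate plates were run and medians reported. Lung cancer cell lines in 1536-well plates were dosed by pin tool one day after seeding, with one drug or with a fixed anchor-drug dose plus five library-drug doses (not always all listed) in √10 steps, and nuclei were counted after 5 days.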
# Midostaurin + Navitoclax = compound: CO[C@@H]1[C@H](N(C)C(=O)c2ccccc2)C[C@H]2O[C@]1(C)n1c3ccccc3c3c4c(c5c6ccccc6n2c5c31)C(=O)NC4 [Midostaurin] + CC1(C)CCC(c2ccc(Cl)cc2)=C(CN2CCN(c3ccc(C(=O)NS(=O)(=O)c4ccc(N[C@H](CCN5CCOCC5)CSc5ccccc5)c(S(=O)(=O)C(F)(F)F)c4)cc3)CC2)C1 [Navitoclax] (partner 0.5 µM)
# Summary of the method: as §1
# Midostaurin + Pemetrexed = compound: CO[C@@H]1[C@H](N(C)C(=O)c2ccccc2)C[C@H]2O[C@]1(C)n1c3ccccc3c3c4c(c5c6ccccc6n2c5c31)C(=O)NC4 [Midostaurin] + Nc1nc2[nH]cc(CCc3ccc(C(=O)N[C@@H](CCC(=O)O)C(=O)O)cc3)c2c(=O)[nH]1 [Pemetrexed] (partner 0.2 µM)
# Summary of the method: as §1
# Midostaurin + Bortezomib = compound: CO[C@@H]1[C@H](N(C)C(=O)c2ccccc2)C[C@H]2O[C@]1(C)n1c3ccccc3c3c4c(c5c6ccccc6n2c5c31)C(=O)NC4 [Midostaurin] + CC(C)C[C@H](NC(=O)[C@H](Cc1ccccc1)NC(=O)c1cnccn1)B(O)O [Bortezomib] (partner 0.002 µM)
# Summary of the method: as §1
# [2] = compound: COc1cc(-c2nn([C@H]3CC[C@H](N4CCN(C(C)=O)CC4)CC3)c3ncnc(N)c23)ccc1NC(=O)c1cc2ccccc2n1C + N=C(N)NC(=N)NCCc1ccccc1 [Phenformin] (partner 250 µM)
# Summary of the method: as §1
Cell Line,relative viability ([1]; first compound 0.0128 µM),relative viability ([1]; first compound 0.04048 µM),relative viability ([1]; first compound 0.128 µM),relative viability ([1]; first compound 1.28 µM),relative viability (Midostaurin + Navitoclax; first compound 0.01 µM),relative viability (Midostaurin + Navitoclax; first compound 0.03162 µM),relative viability (Midostaurin + Navitoclax; first compound 0.1 µM),relative viability (Midostaurin + Navitoclax; first compound 0.3162 µM),relative viability (Midostaurin + Pemetrexed; first compound 0.01 µM),relative viability (Midostaurin + Pemetrexed; first compound 0.03162 µM),relative viability (Midostaurin + Pemetrexed; first compound 0.1 µM),relative viability (Midostaurin + Pemetrexed; first compound 0.3162 µM),relative viability (Midostaurin + Bortezomib; first compound 0.01 µM),relative viability (Midostaurin + Bortezomib; first compound 0.03162 µM),relative viability (Midostaurin + Bortezomib; first compound 0.1 µM),relative viability (Midostaurin + Bortezomib; first compound 0.3162 µM),relative viability ([2]; first compound 0.0128 µM),relative viability ([2]; first compound 0.04048 µM),relative viability ([2]; first compound 0.128 µM),relative viability ([2]; first compound 1.28 µM)
HCC-827,0.253,0.251,0.211,0.238,1.03,0.987,0.958,1.1,0.249,0.251,0.241,0.255,0.984,0.951,0.992,1.07,0.384,0.396,0.406,0.39
HOP-62,0.382,0.332,0.289,0.387,0.928,0.981,0.957,1.04,0.332,0.278,0.326,0.41,0.887,0.728,0.635,1.17,0.712,0.657,0.656,0.709
LC-2-ad,0.304,0.277,0.243,0.275,0.477,0.405,0.439,0.224,0.295,0.281,0.25,0.258,1.03,0.979,0.995,1,0.642,0.552,0.593,0.503
LCLC-97TM1,0.182,0.185,0.171,0.19,0.467,,0.393,0.508,0.164,0.137,0.193,0.166,0.475,,0.419,0.595,0.501,0.377,0.461,0.416
LOU-NH91,0.395,0.348,0.363,0.433,0.753,0.702,0.729,0.825,0.317,0.399,0.37,0.397,0.506,0.48,0.529,0.528,0.768,0.778,0.808,0.649
LU99A,0.162,0.225,0.169,0.252,0.819,0.788,0.576,0.792,0.182,0.165,0.167,0.224,1.08,1.17,1.1,0.998,0.938,0.59,0.85,0.882
LXF-289,1.01,0.881,0.901,1.16,0.954,0.92,0.875,0.968,0.891,0.903,0.888,0.896,0.997,0.97,0.967,0.974,0.545,0.497,0.492,0.46
NCI-H23,0.66,0.459,0.688,0.618,0.875,0.95,0.396,0.788,0.635,0.671,0.533,0.458,1.03,0.999,0.923,1.06,0.765,0.835,0.805,0.717
NCI-H322M,0.603,0.643,0.604,0.538,1.18,1.19,1.31,1.26,0.692,0.527,0.677,0.677,1.37,1.27,1.17,1.34,0.815,0.816,0.743,0.553
NCI-H441,0.275,0.306,0.254,0.295,0.402,0.832,0.522,0.554,0.304,0.259,0.222,0.254,0.477,0.647,0.392,0.442,0.855,0.757,0.849,0.812
NCI-H460,0.0604,0.0561,0.0601,0.0597,1.08,0.994,1.05,1.07,0.0611,0.0661,0.0666,0.0626,1.19,1.19,1.01,1.1,0.551,0.553,0.501,0.482
NCI-H520,0.637,0.732,0.603,0.409,1.05,1.17,1.02,0.865,0.662,0.723,0.736,0.407,0.657,0.492,0.594,0.596,0.45,0.521,0.566,0.425
NCI-H596,0.494,0.536,0.517,0.431,1.09,1.02,0.978,1.07,0.528,0.551,0.488,0.551,0.902,1.12,1.1,1.07,0.665,0.896,0.657,0.579
NCI-H647,0.19,0.154,0.172,0.164,1.16,0.997,0.953,0.738,0.185,0.2,0.184,0.112,0.953,1.07,0.876,0.765,0.526,0.528,0.428,0.4
NCI-H838,0.254,0.262,0.224,0.221,1.23,1.04,1.02,0.354,0.238,0.236,0.208,0.216,0.886,0.91,0.638,0.448,0.694,0.53,0.509,0.388
